Literature values, collected in publication PMC4871733 (Nature chemical biology, 2016).

Assays:
[1] = after 30 minute exposure
[2] = after 30 minute exposure; remark: listed apart in the source
[3] = not given; remark: listed apart in the source
[4] = after 30 minute exposure; remark: listed apart in the source

## Cn1c2cc([S+](C)[O-])sc2c2cnn(Cc3cccc(N)c3)c(=O)c21 (centres unmarked) [ML265]
other
  Aqueous kinetic solubility: 79 µM
[1]
  Stability in human liver microsomes: > 90%
[2]
  Stability in mouse liver microsomes: > 90%
[3]
  Efflux ratio: 1.35
[4]
  Stability in rat liver microsomes: > 90%
